The values that follow come from patent US12319696B2, “2,6-dimethyl-n-((pyridin-4-yl)methyl)imidazo[1,2-b]pyridazin-8-amine and 2,5-dimethyl-n-[(pyridin-4-yl)methyl]pyrazolo[1,5-a]pyrimidin-7-amine derivatives for treating viral infections” (CUROVIR AB, priority 2018, dated 2025).

SMILES strings stand for the structures. Bounds are passed on as bounds.

For data set [1] the following is noted: mice; cited from earlier work.
Data set [2] deals with enterovirus strain 6. In words: microbe, parasite or virus in culture. It counts as cell-based. To be noted: inhibition of viral CPE; for inhibition at 0.01 µM: 10 nM, read-out: Inh. at 10 nM, EV6; for inhibition at 0.1 µM: 100 nM, read-out: Inh. at 100 nM, EV6.
Data set [3] deals with coxsackie B virus strain 2. In words: Antiviral CPE inhibition assay in mammalian cell culture, Cox B2. In kind it is cell-based. To be noted: for inhibition at 0.01 µM: read-out: Inh. at 10 nM, Cox B2; for inhibition at 0.1 µM: read-out: Inh. at 100 nM, Cox B2.
In data set [4] the test system is enterovirus strain 30. In words: Antiviral CPE inhibition assay in mammalian cell culture, EV30. The note with it: inhibition of viral CPE; for inhibition at 0.01 µM: 10 nM, read-out: Inh. at 10 nM, EV30; for inhibition at 0.1 µM: 100 nM, read-out: Inh. at 100 nM, EV30. In kind it is cell-based.
The nature of data set [5]: in vivo. To be noted: male, Sprague Dawley, rat, po, 10 mg/kg. Also noted: species or system Sprague Dawley rats. As for the experimental part: 10 mg of the compound was weighed and transferred to graduated tube. Then 500 μL of DMA (5% v/v) was added, vortex mixed thoroughly and sonicated till test item was completely dissolved. Then 5 mL of PEG 200 (50% v/v) were added, and vortex mixed thoroughly. Thereafter, Sterile Water for Injection (SWFI) was added in small increments and vortex mixed thoroughly. Finally, the volume was made up to 10 mL with SWFI (45% v/v) to obtain a clear solution with final formulation strength of 1 mg/mL. […] Formulation was freshly prepared before the administration to animals. Adult healthy male Sprague Dawley rats aged 8-10 weeks were used for experimentation after a minimum 3 days of acclimation. Fasted animals were administered with test compound in recommended vehicle (5% DMA+50% PEG 200+45% SWFI) by oral route at a dose of 10 mg/kg body weight and at dose volume of 10 mL/kg body weight. Under mild isoflurane anesthesia, blood specimens were collected into pre-labeled tubes containing anticoagulant (K2EDTA—2 mg/mL blood) at different time points post dose.

Data set [6] concerns enterovirus strain 71. In words: Antiviral CPE inhibition assay in mammalian cell culture, EV71. It counts as cell-based. The note with it: inhibition of viral CPE; for inhibition at 0.01 µM: 10 nM, read-out: Inh. at 10 nM, EV71; for inhibition at 0.1 µM: 100 nM, read-out: Inh. at 100 nM, EV71.
Data set [7] in a line: Metabolic stability in rat liver microsomes. It counts as in vitro ADME. The note with it: 5 μM test item, 0.25 mg/mL microsomal protein. Here is the method:
(§1) Metabolic stability assay was carried out using Human/Rat liver microsomes. […] Test item/Control items were incubated with Human/Rat liver microsomes with cofactors and without cofactors. The reaction mixture (100 μL) was removed at specified time period and the reaction was stopped by addition of stop solution. The samples were extracted in presence of internal standard and were analyzed using LC-MS/MS. The percent of the test/Control item remaining after specified incubation period was calculated with respect to the peak area ratio at time 0 min. […] The reaction mixture was incubated further at 37° C. for specified incubation time points (With Cofactors: 0, 15, 30, 60 and 120 min; Without Cofactors: 0 and 120 min). 100 μL incubation samples of test items and Control items at specified incubation time points were transferred to respective tubes for sample extraction. Test and Control item specimens were extracted by Protein precipitation method. A 100 μL incubation sample at each time point was added to tubes containing 200 μL of ice-cold acetonitrile and 50 μL Haloperidol solution (0.5 μg/mL). Then the tubes were vortex mixed thoroughly and centrifuged at 10000 rpm for 10 minutes at 4° C. A clear supernatant of 200 μL of samples were submitted for LC-MS/MS analysis.
Background: Liver microsomes are vesicles of endoplasmic reticulum, rich in cytochrome P450 enzymes.

The subject of data set [8] is coxsackie B virus strain 5. In words: Antiviral CPE inhibition assay in mammalian cell culture, Cox B5. The note with it: for inhibition at 0.01 µM: read-out: Inh. at 10 nM, Cox B5; for inhibition at 0.1 µM: read-out: Inh. at 100 nM, Cox B5. It counts as cell-based.
Data set [9] in a line: Metabolic stability in human liver microsomes. It counts as in vitro ADME. To be noted: 5 μM test item, 0.25 mg/mL microsomal protein. As for the experimental part:
as §1

Data set [10] has as its system enterovirus D68. Put plainly: Antiviral CPE inhibition assay in mammalian cell culture, EV-D68. The note with it: Enterovirus D, EVD68, inhibition of viral CPE; for inhibition at 0.01 µM: 10 nM, read-out: Inh. at 10 nM, EV-D68; for inhibition at 0.1 µM: 100 nM, read-out: Inh. at 100 nM, EV-D68. It counts as cell-based.
Data set [11] in a line: Human plasma protein binding (Rapid Equilibrium Dialysis). It counts as in vitro ADME. The note with it: pH 7.4, RED device, 37° C. Here is the method:
(§2) Plasma protein binding study was performed using a Rapid Equilibrium Dialysis (RED) device containing dialysis membrane with a molecular weight cut-off of 8,000 Daltons. Each dialysis insert contained two chambers. The red chamber was for the plasma while the white chamber was for the buffer. Test items and Control items (Warfarin and Propranolol) were prepared at a required test concentration of 10 μM in Human/Rat plasma (pH adjusted to 7.40) using 10 mM DMSO stocks (final DMSO concentration was 0.1%). 300 μL of plasma sample was added into the sample chamber. 500 μL of buffer was added into the buffer chamber. After sealing the RED device with an adhesive film, incubation was done at 37° C. with shaking at 300 rpm for 4 h. Following incubation, an aliquot of 50 μL was removed from each well (plasma and buffer side) and diluted with equal volume of opposite matrix to nullify the matrix effect and subjected for sample extraction.
(§3) All samples were extracted by Protein Precipitation method by adding 200 μL of ice cold Acetonitrile and 50 μL of internal standard (Haloperidol at 0.1 μg/mL) solution. The tubes were vortex mixed thoroughly and centrifuged at 10000 rpm, 4° C. for 10 minutes. A clear supernatant of 200 μL of samples were submitted for LC-MS/MS analysis.

Data set [12] concerns the target T1, CYP3A4 (Homo sapiens, UniProt P08684).
T1 construct: from tissue; host or cells: human liver microsomes
In words: In vitro CYP 3A4 enzyme inhibition in human liver microsomes by probe substrate method. It counts as in vitro ADME. To be noted: human liver microsomes 0.5 mg/mL; probe substrate Midazolam 5 μM. As for the experimental part:
In Vitro CYP 3A4 Enzyme Inhibition Study in Human Liver Microsomes by Probe Substrate Method
In vitro CYP3A4 enzyme inhibition assay was performed using Human liver microsomes at 0.5 mg/mL concentration. Ketoconazole was used as reference inhibitor and Midazolam was used as selective probe substrate for CYP 3A4 enzyme. Serial dilution of test/control items was prepared in potassium phosphate buffer (50 mM, pH 7.40) to obtain eight concentrations each in a 1:4 dilution pattern. The percentage of acetonitrile/DMSO was maintained at 2.5%/0.25% in 2.5× serially diluted control/test item solutions respectively. The final percentage of acetonitrile/DMSO was 1%/0.1% respectively. Intermediate solutions such as 10× working solution (5 mg/mL) of Human liver microsomal solution, 10× concentration of reference probe substrates in buffer, 5× concentrations of Cofactors (5.0 mM NADP+, 25.0 mM G-6-P, 3.0 IU/mL G-6-PDH and 10.0 mM MgCl2) were prepared in potassium phosphate buffer. The final concentration of liver microsomes in the reaction mixture was 0.5 mg/mL, cofactors was 1.0 mM NADP+, 5.0 mM G-6-P, 0.6 IU/mL G-6-PDH and 2.0 mM MgCl2. Midazolam was tested at 5 μM test concentration. 40 μL of 2.5× serially diluted test/control item solutions and 10 μL of […] liver microsomal solution were added to 96 well plate and incubated for 10 min at 37° C. with shaking condition (400 rpm) using Thermomixer. After pre incubation, 20 μL of potassium phosphate buffer, 10 μL of respective probe substrate working solution and 20 μL of cofactor mix was added.

Data set [13] can be described thus: Rat plasma protein binding (Rapid Equilibrium Dialysis). It counts as in vitro ADME. The note with it: pH 7.4, RED device, 37° C. Here is the method:
as §2, §3
In general terms: In equilibrium dialysis free small molecules cross a membrane that holds back macromolecules.

Data set [14] has as its system polio virus strain 1. Put plainly: organism not typed. In kind it is cell-based. To be noted: for inhibition at 0.01 µM: read-out: Inh. at 10 nM, Polio 1; for inhibition at 0.1 µM: read-out: Inh. at 100 nM, Polio 1.
The subject of data set [15] is coxsackie B virus strain 3. In words: Antiviral CPE inhibition assay in mammalian cell culture, Cox B3. To be noted: for inhibition at 0.01 µM: read-out: Inh. at 10 nM, Cox B3; for inhibition at 0.1 µM: read-out: Inh. at 100 nM, Cox B3. It counts as cell-based.
The test system of data set [16] is coxsackie B virus strain 1. Put plainly: Antiviral CPE inhibition assay in mammalian cell culture, Cox B1. In kind it is cell-based. To be noted: for inhibition at 0.01 µM: read-out: Inh. at 10 nM, Cox B1; for inhibition at 0.1 µM: read-out: Inh. at 100 nM, Cox B1.

T1 sequence (P08684 whole entry): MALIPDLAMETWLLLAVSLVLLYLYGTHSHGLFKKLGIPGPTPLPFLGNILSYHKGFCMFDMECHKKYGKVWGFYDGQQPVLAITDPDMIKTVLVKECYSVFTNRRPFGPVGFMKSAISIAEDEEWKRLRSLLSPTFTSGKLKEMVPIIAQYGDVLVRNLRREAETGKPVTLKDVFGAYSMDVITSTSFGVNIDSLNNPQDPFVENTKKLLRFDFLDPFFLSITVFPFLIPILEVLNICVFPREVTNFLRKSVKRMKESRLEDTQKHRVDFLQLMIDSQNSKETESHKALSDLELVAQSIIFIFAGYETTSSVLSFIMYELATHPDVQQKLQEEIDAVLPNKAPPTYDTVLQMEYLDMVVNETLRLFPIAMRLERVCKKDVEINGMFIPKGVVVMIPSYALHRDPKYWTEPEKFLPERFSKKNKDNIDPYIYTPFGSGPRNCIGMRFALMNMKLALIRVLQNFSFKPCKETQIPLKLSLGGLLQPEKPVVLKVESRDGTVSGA

On to `COc1ccc(-c2c(C)nn3c(NCCN4CCOCC4)cc(C)nc23)cc1OC` [T-00127-HEV1, 3-(3,4-dimethoxyphenyl)-2,5-dimethyl-N-(2-morpholinoethyl)pyrazolo[1,5-a]pyrimidin-7-amine], for which the “mortality when tested in-vivo” value in [1] is on record as “induced mortality in mice”.

Usually AUC(0-inf) stands for the area under the concentration-time curve extrapolated to infinity. The AUC(0-t) is the area under the concentration-time curve up to a stated or last time point. The low end stands for less exposure, the high end for more exposure. A word on the Cmax: it is the maximum level reached in the sampled fluid or tissue. One may read the MRT last as a mean duration of stay, worked out from the concentration-time curve. A word on the Tmax: it is the time from dosing to the highest level. Usually half-life stands for the time needed for the level to fall by half in the phase considered. The term fraction unbound denotes the share of the substance not bound to proteins or other matrix. What is called IC50 is the concentration that inhibits the measured activity by half. A low value points to higher potency. On to `Cc1cc(CNc2cc(C)nc3c(-c4ccc5c(c4)c(C)nn5C)c(C)nn23)ccn1` [Ex. 4, 3-(1,3-dimethyl-1H-indazol-5-yl)-2,5-dimethyl-N-[(2-methylpyridin-4-yl)methyl]pyrazolo[1,5-a]pyrimidin-7-amine], for which the inhibition at 0.01 µM in [2] was found to be 100%; in data set [3] it was 100%; in [4], 100%; in data set [6], 76%; in data set [8] it was 74%; in data set [10] it was 81%. The inhibition at 0.01 µM in data set [14], in data set [15] and in [16] was 100% in each case. Moreover, the inhibition at 0.1 µM in data set [2] is 100%; in data set [3] it was 100%; in data set [4], 100%; in data set [6], 79%; in data set [8], 100%; in data set [10], 70%. In addition, the inhibition at 0.1 µM in [14], in [15] and in [16] was 100% throughout. The compound further returned an AUC(0-inf) in data set [5] of 27400 ± 10100 ng·h/mL. This compound yielded an AUC(0-t) in data set [5] of 25200 ± 10000 ng·h/mL. Also, in data set [5], the AUCextrap came to 8.5 ± 5.2%. The peak level in [5] (Cmax) was 2500 ± 900 ng/mL. Besides, in data set [5], the MRT last came to 6.7 ± 0.6 h. Moreover, in [5], the Tmax is 1.3 ± 0.6 h. Further, in [5], the half-life is 6.8 ± 1.5 h. For the same compound, the “% remaining after incubation for 60 min, Rat microsomes” value in data set [7] was found to be 84.0%. In addition, the “% remaining after incubation for 60 min, Human microsomes” value in [9] stood at 90.0%. Also, the free fraction (fraction unbound) at 4 h, 10 μM in data set [11] is 0.015; in data set [13], 0.017. The compound also registered an IC50 in data set [12] of over 25000 nM.

`Cc1cc(NCc2ccncc2)n2nc(C)c(-c3ccc4c(c3)c(C)nn4C)c2n1` [Comp. Y, 3-(1,3-dimethyl-1H-indazol-5-yl)-2,5-dimethyl-N-[(pyridin-4-yl)methyl]pyrazolo[1,5-a]pyrimidin-7-amine, reference compound]: the inhibition at 0.01 µM in [2] was determined as 100%; in [3] it was 100%; in [4] it was 100%; in data set [6], 87%; in [8] it was 85%; in [10], 85%. Further, the inhibition at 0.01 µM in data set [14], in data set [15] and in data set [16] was 100% in each case. In addition, the inhibition at 0.1 µM in data set [2] was 100%; in data set [3], 100%; in data set [4], 100%; in [6], 86%; in data set [8] it was 100%; in data set [10] it was 80%. Also, the inhibition at 0.1 µM in data set [14], in data set [15] and in data set [16] was 100% each time. The same compound had an AUC(0-inf) in data set [5] of 15500 ± 1900 ng·h/mL. The compound also had an AUC(0-t) in [5] of 14800 ± 2600 ng·h/mL. This compound also displayed an AUCextrap in [5] of 4.6 ± 5.6%. This compound registered a Cmax in data set [5] of 2300 ± 300 ng/mL. The same compound came in with an MRT last in data set [5] of 4.4 ± 1.1 h. In addition, the Tmax in data set [5] was found to be 1.2 ± 0.8 h. The half-life in data set [5] is 3.4 ± 1.2 h. In addition, in data set [7], the “% remaining after incubation for 60 min, Rat microsomes” value is given as 89.7%. The “% remaining after incubation for 60 min, Human microsomes” value in [9] is on record as 86.2%. In addition, the values for the unbound share (fraction unbound) at 4 h, 10 μM in data set [11] and in [13] were 0.027 and 0.024, respectively. Moreover, the IC50 in data set [12] is 280 nM.
